# Columns and labels:
# [1] = test system: colon explants; type: cell-based, mouse
# Description: (F) FACS quantification of propidium iodide positive cells obtained from colon explants incubated for 10 hrs with PBS or taurine.
# (F) FACS quantification of propidium iodide positive cells obtained from colon explants incubated for 10 hrs with either PBS, spermine or histamine.
# [2] = molecular target: T1, colonic NLRP6 inflammasome (Mus musculus, UniProt Q91WS2); test: Metabolites in the drinking water of mice, colonic inflammasome readouts; type: in vivo; settings: for colonic lamina propria hematopoietic cell populations: WT mice drinking for 14 days, FACS; for colonic caspase-1 activation (activated caspase-1 levels): WT mice, drinking water for 14 days
# T1 construct: in colon tissue obtained from WT mice drinking taurine for 14 days; from tissue; host or cells: colon of living WT mice (SPF for A4; germ-free for A5)
# T1 sequence (Q91WS2 1-869): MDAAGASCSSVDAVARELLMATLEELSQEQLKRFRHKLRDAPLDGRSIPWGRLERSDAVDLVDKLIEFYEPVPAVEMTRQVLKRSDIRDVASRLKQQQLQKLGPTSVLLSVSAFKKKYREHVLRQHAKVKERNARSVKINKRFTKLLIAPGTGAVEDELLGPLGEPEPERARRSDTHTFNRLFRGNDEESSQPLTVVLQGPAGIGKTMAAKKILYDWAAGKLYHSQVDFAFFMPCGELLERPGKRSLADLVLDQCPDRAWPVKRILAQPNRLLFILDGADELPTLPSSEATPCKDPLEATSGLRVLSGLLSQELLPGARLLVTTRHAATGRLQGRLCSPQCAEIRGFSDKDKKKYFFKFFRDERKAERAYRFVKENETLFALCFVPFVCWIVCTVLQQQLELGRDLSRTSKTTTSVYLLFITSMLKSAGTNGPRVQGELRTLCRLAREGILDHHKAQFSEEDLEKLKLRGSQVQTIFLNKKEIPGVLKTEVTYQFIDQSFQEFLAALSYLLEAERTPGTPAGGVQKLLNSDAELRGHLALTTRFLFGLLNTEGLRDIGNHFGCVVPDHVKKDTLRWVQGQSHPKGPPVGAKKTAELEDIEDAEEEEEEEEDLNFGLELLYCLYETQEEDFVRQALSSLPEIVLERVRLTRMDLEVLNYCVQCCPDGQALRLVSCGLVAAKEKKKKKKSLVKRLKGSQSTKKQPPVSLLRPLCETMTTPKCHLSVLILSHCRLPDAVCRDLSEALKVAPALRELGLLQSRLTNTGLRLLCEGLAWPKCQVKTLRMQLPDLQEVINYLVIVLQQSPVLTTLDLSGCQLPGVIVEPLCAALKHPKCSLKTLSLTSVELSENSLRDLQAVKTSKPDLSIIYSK
# Description: (A, B) Immunoblot analysis (A) and quantification (B) of pro-caspase-1 (p45) and cleaved caspase-1 (p20) in colon tissue obtained from WT mice drinking taurine for 14 days.
# (C) IL-18 production by colon explants obtained from WT mice drinking taurine for 14 days.
# (D) Ang4 expression in sorted epithelial cells (CD45^−EpCAM^+) obtained from WT mice drinking taurine for 14 days.
# (I) IL-18 production by colon explants from WT, Asc^−/− or Nlrp6^−/− mice drinking taurine for 14 days.
# (J, K) Immunoblot analysis (J) and quantification (K) of pro-caspase-1 (p45) and cleaved caspase-1 (p20) in colon tissue obtained from WT mice drinking histamine with or without spermine for 14 days.
# Colons were excised and washed thoroughly with PBS, homogenized in RIPA buffer containing protease inhibitors, incubated for 20 min in 4° C. and centrifuged for 20 min, 14,000 rpm at 4° C. Samples were separated on 15% acrylamide gels and transferred onto nitrocellulose membranes. Western blot analysis was performed using anti-caspase 1 p20 polyclonal antibody (Adipogen, AG-20B-0042B-C100) and Goat anti mouse antibody (Jackson ImmunoResearch, 115-035-003). Band density was calculated using ImageJ software.
# Concentrations of IL-18 in the serum or culture supernatants were measured using ELISA. Plates were coated over night with IL-18 (MBL, B004-2), incubated for 4 hours with supernatant or serum. Samples were then washed and plates were incubated with anti-mouse IL-18-biotin antibody (D048-6 MBL) for 1 hour and HRP-Avidin (BioLegend) for 1 hour before quantification.
# Tissues were preserved in RNAlater solution (Ambion) and subsequently homogenized in Tri Reagent (Fox et al.). RNA was purified according to the manufacturer's instructions. Two microgram of total RNA was used to generate cDNA (HighCapacity cDNA Reverse Transcription kit; Applied Biosystems). RealTime-PCR was performed using gene-specific primer/probe sets (Applied Biosystems) and Kapa Probe Fast qPCR kit (Kapa Biosystems) on a Viia7 instrument (Applied Biosystems). PCR conditions were 95° C. for 20 s, followed by 40 cycles of 95° C. for 3 s and 60° C. for 30 s. Data were analyzed using the deltaCt method with hprt serving as the reference housekeeping gene.
# To provide in-vivo validation to the above metabolite activities and to further characterize their effects on the host-microbiome interface, we administered taurine to mice in the drinking water. […] To test this notion directly, either LPS (a known ‘signal I’), taurine, or both were administered to GF WT mice. […] In contrast to taurine, in-vivo administration of histamine and spermine reduced the levels of activated caspase-1 (FIGS. 6J and 6K), while not altering the composition of hematopoietic cells in the lamina propria (FIG. 13D).
Compound,cell death [1],colonic lamina propria hematopoietic cell populations [2],colonic caspase-1 activation (activated caspase-1 levels) [2],IL-18 induction ([2]; Asc-/- or Nlrp6-/- mice drinking taurine for 14 days),IL-18 secretion ([2]; colon explants from WT mice drinking for 14 days),IL-18 mRNA levels ([2]; colon of WT mice drinking for 14 days),epithelial Ang4 production ([2]; sorted epithelial cells from WT mice drinking for 14 days)
NCCc1c[nH]cn1 [histamine],no change,not altering,reduced,–,–,–,–
NCCCNCCCCNCCCN [spermine],no change,not altering,reduced,–,–,–,–
NCCS(=O)(=O)O [taurine],–,not accompanied by alterations,marked activation,no IL-18 induction,marked activation,not affecting,marked activation
